According to patent US20090117054A1, “[…] FOR THE TREATMENT OF PAIN” (University of Kentucky Research Foundation, priority 2005, published 2009):
Like-named read-outs stand apart in the source and are kept apart here.

Columns and labels:
[1] = cited from earlier work; for time to reach maximum plasma concentration: healthy volunteers
[2] = Pharmacokinetics of oxycodone in rabbits after intravenous and sublingual spray administration
[3] = male, New Zealand albino, rabbit, plasma, iv, 100 ug

For `COc1ccc2c3c1O[C@H]1C(=O)CC[C@@]4(O)[C@@H](C2)N(C)CC[C@]314.Cl` [oxycodone hydrochloride], which bioavailability ([1]; buccal and intranasal administration) is on record?
The bioavailability was “around 55%”.

What does the source list for `COc1ccc2c3c1O[C@H]1C(=O)CC[C@@]4(O)[C@@H](C2)N(C)CC[C@]314` [oxycodone, 4,5-epoxy-14-hydroxy-3-methoxy-1 7-methyl-5a-morphinan-6-one]?
Tmax ([2]; male, New Zealand albino, rabbit, plasma, 100 μg): 20 min; bioavailability ([2]; male, New Zealand albino, rabbit, plasma, 100 μg, pH 4): 45.4 ± 20.1%; bioavailability ([2]; male, New Zealand albino, rabbit, plasma, 100 μg, pH 9): 70.1 ± 17.9%; AUC(0-inf) [2, 3]: 213 ng·h/mL; Cmax [2, 3]: 185 ng/mL; Tmax [2, 3]: 0 min; half-life [2, 3]: 67.8 min; terminal half-life after intravenous administration compared with sublingual administration ([2]; rabbits): close to the terminal half-life after sublingual administration; time to reach maximum plasma concentration ([1]; immediate release oral tablets): 1.3 h; time to reach maximum plasma concentration ([1]; intramuscular): 1.0 h; time to reach maximum plasma concentration ([1]; intranasal): 0.42 h; bioavailability ([1]; oral, nasal and rectal, adults, compared with parenteral administration): 40-60%
